According to US11013235B2 (priority 2015, dated 2021):
Where two headings read alike, the source gives them in different places.

How the values were obtained:
Format in all cases: in vivo
Botrytis cinerea [1] = test: Control of Botrytis cinerea disease in Arabidopsis (Bc-At); conditions: 1 μM spraying every 24 hours for one week, water control 8.7
In short: (§1)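 Lesion diameter was the measure for Botrytis infection, percentage of leaves showing symptoms for Alternaria, and mortality rate for Nocardia. Compounds at 1 μM were sprayed daily for a week onto already inoculated plants, in groups of fifty, alongside water-treated controls.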

Nocardia sp = test: Control of Nocardia sp disease in tobacco (N-Nt); conditions: 1 μM spraying every 24 hours for one week, water control 58
In short: as §1

Meloidogyne incognita = test: Nematode control, nodules per plant: Meloidogyne incognita; conditions: 1 μM foliar application every 5 days, evaluation 35 days after, control 34
In short: (§2)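 Ten plants per group were treated by spraying leaves only, every 5 days, with compound at 1 μM in water diluted from ethanol, and final nodule counts per plant were taken after 35 days.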

Phytophthora parasitica = test: Control of Phytophthora parasitica disease in tobacco (Pp-Nt); conditions: 1 μM spraying every 24 hours for one week, water control 91
Botrytis cinerea [2] = test: Control of Botrytis cinerea disease in tomato (Bc-SI); conditions: 1 μM spraying every 24 hours for one week, water control 7.4
In short: as §1

Pratylenchus coffeae = test: Nematode control, nodules per plant: Pratylenchus coffeae; conditions: 1 μM foliar application every 5 days, evaluation 35 days after, control 42
In short: as §2

Botrytis cinerea [3] = test: Control of Botrytis cinerea disease in tobacco (Bc-Nt); conditions: 1 μM spraying every 24 hours for one week, water control 6.7
In short: as §1

[4] = test system: Candidatus 'Liberibacter asiaticus'; conditions: spraying every 15 days, 12 months after treatment, Citrus sinensis with HLB
Radopholus similis = test: Nematode control, nodules per plant: Radopholus similis; conditions: 1 μM foliar application every 5 days, evaluation 35 days after, control 45
In short: as §2

Alternaria solani = test: Control of Alternaria solani disease in tomato (As-SI); conditions: 1 μM spraying every 24 hours for one week, water control 68
In short: as §1

Rhizoctonia solani [5] = test: Control of Rhizoctonia solani disease in tomato (Rs-SI); conditions: 1 μM spraying every 24 hours for one week, water control 96
Rhizoctonia solani [6] = test: Control of Rhizoctonia solani disease in tobacco (Rs-Nt); conditions: 1 μM spraying every 24 hours for one week, water control 87

| SMILES | Bc-At: mean of the diameter of the lesion (Botrytis cinerea [1]) [mm] | N-Nt: percentage of mortality (Nocardia sp) [%] | Mi: number of nodules per plant (Meloidogyne incognita) | Pp-Nt: percentage of mortality (Phytophthora parasitica) [%] | Bc-SI: mean of the diameter of the lesion (Botrytis cinerea [2]) [mm] | Pc: number of nodules per plant (Pratylenchus coffeae) | Bc-Nt: mean of the diameter of the lesion (Botrytis cinerea [3]) [mm] | Titers of the bacterium ([4]; 0.001 μM) [copies per reaction] | Titers of the bacterium ([4]; 0.01 μM) [copies per reaction] | Titers of the bacterium ([4]; 1 μM) [copies per reaction] | Titers of the bacterium ([4]; 5 μM) [copies per reaction] | Titers of the bacterium ([4]; 10 μM) [copies per reaction] | Rs: number of nodules per plant (Radopholus similis) | As-SI: percentage of leaves with the disease symptoms (Alternaria solani) [%] | Rs-SI: percentage of mortality (Rhizoctonia solani [5]) [%] | Rs-Nt: percentage of mortality (Rhizoctonia solani [6]) [%] |
| --- | --- | --- | --- | --- | --- | --- | --- | --- | --- | --- | --- | --- | --- | --- | --- | --- |
| O=C(c1ccc(OC2CCN(CC(O)CO)CC2)cc1)N1CCC(c2ccccc2)C1 (centres unmarked) [IVC, 3-(4-{4-[(3-phenylpyrrolidin-1-yl)carbonyl]phenoxy}piperidin-1-yl)propane-1,2-diol] | 1.2 | 1 | 2 | 1 | 0.8 | 13 | 0.3 | 123 | 4 | 0 | 23 | 3541 | 14 | 1 | 3 | 2 |
| O=C(CCc1cc2cc3c(-c4ccc5ccccc5c4)coc3cc2oc1=O)NCC(O)CO (centres unmarked) [IE, N-(2,3-dihydroxypropyl)-3-[6-(naphthalen-2-yl)-2-oxo-2H-furo[3,2-g]chromen-3-yl]propanamide] | 2.4 | 0 | 0 | 0 | 0.8 | 0 | 1.5 | 587 | 0 | 0 | 87 | 6574 | 0 | 7 | 0 | 0 |
| O=C(c1cnc(N2CCN(C3CCCC3)CC2)nc1)N1CC2CC(O)C(O)CC2C1 (centres unmarked) [IIIG, 2-{[2-(4-cyclopentylpiperazin-1-yl)pyrimidin-5-yl]carbonyl}-octahydro-1H-isoindole-5,6-diol] | 2.4 | 0 | 0 | 3 | 0.8 | 0 | 1.5 | 756 | 12 | 5 | 76 | 9654 | 3 | 7 | 1 | 0 |
| O=C(c1ccc(OC2CCN(CC(O)CO)CC2)cc1)N1CCC(C2CCCC2)C1 (centres unmarked) [IVG, 3-(4-{4-[(3-cyclopentylpyrrolidin-1-yl)carbonyl]phenoxy}piperidin-1-yl)propane-1,2-diol] | 2.4 | 0 | 0 | 0 | 0.8 | 0 | 1.5 | 658 | 0 | 0 | 68 | 4562 | 0 | 7 | 0 | 0 |
| O=C(CCc1cc2cc3c(C4CCCCC4)coc3cc2oc1=O)NCC(O)CO (centres unmarked) [IC, 3-{6-cyclohexyl-2-oxo-2H-furo[3,2-g]chromen-3-yl}-N-(2,3-dihydroxypropyl)propanamide] | 0.5 | 2 | 4 | 1 | 0.8 | 22 | 0.9 | 432 | 9 | 0 | 43 | 9632 | 13 | 3 | 2 | 4 |
| Cc1c2c(oc(=O)c1CC(=O)NCC(O)CO)C=CC1C(n3cccc3)=COC21 (centres unmarked) [IIN, N-(2,3-dihydroxypropyl)-2-[13-methyl-11-oxo-5-(1H-pyrrol-1-yl)-3,10-dioxatricyclo[7.4.0.0^{2,6}]trideca-1(9),4,7,12-tetraen-12-yl]acetamide] | 1.5 | 0 | 0 | 3 | 2.5 | 0 | 1.5 | 598 | 0 | 0 | 98 | 9654 | 3 | 7 | 1 | 0 |
| CN1CCN(c2ncc(C(=O)N3CC4CC(O)C(O)CC4C3)cn2)CC1 (centres unmarked) [IIIA, 2-{[2-(4-methylpiperazin-1-yl)pyrimidin-5-yl]carbonyl}-octahydro-1H-isoindole-5,6-diol] | 2.4 | 1 | 2 | 1 | 0.8 | 16 | 1.5 | 432 | 0 | 0 | 43 | 2365 | 11 | 1 | 3 | 2 |
| Cc1c2c(oc(=O)c1CC(=O)NCC(O)CO)C=CC1C=COC21 (centres unmarked) [IIM, N-(2,3-dihydroxypropyl)-2-{13-methyl-11-oxo-3,10-dioxatricyclo[7.4.0.0^{2,6}]trideca-1(9),4,7,12-tetraen-12-yl}acetamide] | 0.5 | 0 | 0 | 0 | 0.8 | 0 | 0.9 | 524 | 0 | 0 | 54 | 8542 | 0 | 5 | 1 | 0 |
